Data set [1] addresses T1, Renin (Homo sapiens, UniProt P00797).
T1 sequence (P00797 whole entry): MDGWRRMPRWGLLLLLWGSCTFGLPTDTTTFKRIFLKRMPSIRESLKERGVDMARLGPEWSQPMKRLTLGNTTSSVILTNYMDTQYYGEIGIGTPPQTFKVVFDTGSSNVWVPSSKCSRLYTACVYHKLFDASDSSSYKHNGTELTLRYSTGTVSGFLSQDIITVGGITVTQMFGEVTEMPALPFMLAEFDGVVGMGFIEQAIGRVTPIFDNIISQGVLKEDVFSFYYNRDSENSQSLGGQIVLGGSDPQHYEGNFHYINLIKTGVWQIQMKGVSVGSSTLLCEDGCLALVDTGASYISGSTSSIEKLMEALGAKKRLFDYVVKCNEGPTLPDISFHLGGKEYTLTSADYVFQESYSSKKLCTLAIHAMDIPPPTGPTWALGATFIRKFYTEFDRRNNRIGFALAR

The target in data set [2] is T1, Renin. Put plainly: Inhibition of human recombinant renin using dabcyl-gamma-Abu-Ile-His-Pro-Phe-His-Leu-Val-Ile-His-Thr-EDANS as substrate preincubated for 30 mins after measured after 30 mins by fluorescence assay in presence of human plasma.
In data set [3] the target is T1, Renin. Put plainly: Inhibition of human recombinant renin using dabcyl-gamma-Abu-Ile-His-Pro-Phe-His-Leu-Val-Ile-His-Thr-EDANS as substrate preincubated for 30 mins after measured after 30 mins by fluorescence assay in presence of C57BL/6 mouse plasma.
The nature of data set [4]: Apparent permeability from apical to basolateral side of human Caco2 cells at 20 uM after 2 hrs. As to conditions: Caco-2. For orientation: Caco-2 monolayers are a common model of the intestinal barrier.

For 46 compounds, IC50 and Papp A→B results are on record in ChEMBL document CHEMBL1821686, “Structure-based optimization of potent 4- and 6-azaindole-3-carboxamides as renin inhibitors” (Bioorg Med Chem Lett, 2011).

Take `Cc1cc(F)c(F)cc1Oc1c(C(=O)N2CCNCC2)c2ncccc2n1-c1ccccc1`: at Renin [1], the IC50 (usually the point on the concentration scale where inhibition reaches its midpoint) was found to be 322 nM.

As for `Cc1ccccc1Oc1c(C(=O)N2CCNCC2)c2ccncc2n1-c1ccccc1`, at Renin [1], the IC50 worked out at 494 nM.

With `Cc1cccc(C)c1Oc1c(C(=O)N2CCN[C@@H](CO)C2)c2ncccc2n1-c1ccccc1`, 143 nM corresponded to half-maximal inhibition against Renin [1] (IC50).

In turn, `Cc1c(F)cccc1Cc1nccc2c(C(=O)N3CCNCC3)c(Cc3cccc(F)c3C)n(-c3ccccc3)c12` registered an IC50 against Renin [1] of 5 nM.

The compound `Cc1ccc(F)cc1Oc1c(C(=O)N2CCNCC2)c2nc(O)ccc2n1-c1ccccc1` displayed an IC50 on Renin [1] above 5000 nM.

As for `Cc1cc(F)cc(C)c1Cc1c(C(=O)N2CCNCC2)c2ncccc2n1-c1ccccc1`, half-maximal inhibition at Renin [1] (IC50) required 246 nM.

On to `COc1ccc2c(n1)c(C(=O)N1CCNCC1)c(Cc1cccc(F)c1C)n2-c1ccccc1`, for which the IC50 against Renin [1] turned out to be 590 nM.

As to `Cc1ccc(F)cc1Oc1c(C(=O)N2CCNCC2)c2ccncc2n1-c1ccccc1`, the IC50 against Renin [1] was found to be 27 nM.

With `Cc1ccc(F)cc1Oc1c(C(=O)N2CCNCC2)c2ccnc(Cc3ccccc3)c2n1-c1ccccc1`, the results for the IC50 on Renin [2] and on Renin [3] were 226 nM and 192 nM, respectively. Further, the Papp A→B (usually how fast a substance crosses the layer from the apical side) at 2 h, 20 µM in data set [4] is 3.9 ×10⁻⁶ cm/s.

The compound `Cc1c(F)cccc1Oc1c(C(=O)N2CCNCC2)c2ncccc2n1-c1ccccc1` had an IC50 against Renin [1] of 57 nM.

On Renin [1], `Cc1cnc2c(C(=O)N3CCNCC3)c(Cc3cccc(F)c3C)n(-c3ccccc3)c2c1` returned an IC50 of 9 nM.

As to `Cc1cccc(C)c1Sc1c(C(=O)N2CCNCC2)c2ncccc2n1-c1ccccc1`, the midpoint of inhibition at Renin [1], the IC50, lay at 61 nM.

Take `CC[C@H]1CN(C(=O)c2c(Oc3c(C)cccc3C)n(-c3ccccc3)c3cccnc23)CCN1`: half-maximal inhibition against Renin [1] (IC50) was put at 455 nM.

Compound `Cc1cccc(C)c1Oc1c(C(=O)N2CCNCC2)c2ccncc2n1-c1ccccc1` yielded an IC50 at Renin [1] of 112 nM.

Take `Cc1c(F)cc(F)cc1Oc1c(C(=O)N2CCNCC2)c2ncccc2n1-c1ccccc1`: at Renin [1], the midpoint of inhibition, the IC50, lay at 107 nM.

At Renin [1], `O=C(c1c(Oc2cc(F)ccc2F)n(-c2ccccc2)c2cccnc12)N1CCNCC1` yielded an IC50 of 202 nM.

`Cc1cccc(C)c1Oc1c(C(=O)N2CCN[C@@H](C)C2)c2ncccc2n1-c1ccccc1` showed an IC50 against Renin [1] of 60 nM.

`Cc1cccc(C)c1Oc1c(C(=O)N2CCN[C@@H](CO)C2)c2ncccc2n1C1CCCCC1`: at Renin [1], the IC50 was 390 nM.

For `Cc1cccc(C)c1Oc1c(C(=O)N2CCNCC2)c2ccnc(Cl)c2n1-c1ccccc1`, on Renin [1], half-maximal inhibition (IC50) required 517 nM.

At Renin [1], `Cc1c(F)cccc1Cc1c(C(=O)N2CCNCC2)c2nc(O)ccc2n1-c1ccccc1` returned an IC50 of 1600 nM.

For the compound `Cc1ccc(F)c(C)c1Oc1c(C(=O)N2CCNCC2)c2ncccc2n1-c1ccccc1`, the figures for the IC50 at Renin [1] and at Renin [3] were 1.3 nM and 36 nM, respectively. The Papp A→B at 2 h, 20 µM in data set [4] was 4.3 ×10⁻⁶ cm/s.

`Cc1ccc(F)c(C)c1Oc1c(C(=O)N2CCNCC2)c2ccncc2n1-c1ccccc1` had an IC50 on Renin [1] of 2 nM.

As for `O=C(c1c(Oc2ccccc2F)n(-c2ccccc2)c2cccnc12)N1CCNCC1`, the IC50 at Renin [1] stood at 513 nM.

On Renin [1], `Cc1cccc(C)c1Oc1c(C(=O)N2CCN[C@@H](C)C2)c2ncccc2n1C1CCCCC1` displayed an IC50 of 80 nM.

Compound `Cc1cccc(C)c1Oc1c(C(=O)N2CCNCC2)c2ncc(O)cc2n1-c1ccccc1` returned an IC50 against Renin [1] of 3 nM.

In the case of `Cc1cccc(F)c1Oc1c(C(=O)N2CCNCC2)c2ncccc2n1-c1ccccc1`, at Renin [1], half-maximal inhibition (IC50) required 74 nM.

At Renin [1], `O=C(c1c(Oc2cc(F)ccc2Cl)n(-c2ccccc2)c2cccnc12)N1CCNCC1` returned an IC50 of 55 nM.

Compound `COC[C@H]1CN(C(=O)c2c(Oc3c(C)cccc3C)n(C3CCCCC3)c3cccnc23)CCN1` yielded an IC50 against Renin [1] of 694 nM.

Consider `Cc1cccc(C)c1Oc1c(C(=O)N2CCNCC2)c2ncccc2n1-c1ccccc1`, for which the figures for the IC50 on Renin [1], on Renin [2] and on Renin [3] were 14 nM, 30 nM and 15 nM, respectively. Moreover, the Papp A→B at 2 h, 20 µM in data set [4] stood at 0.28 ×10⁻⁶ cm/s.

On to `Cc1c(F)cccc1Cc1c(C(=O)N2CCNCC2)c2ncccc2n1-c1ccccc1`, for which, at Renin [1], the IC50 is 12 nM.

Regarding `CCOc1cnc2c(C(=O)N3CCNCC3)c(Oc3c(C)cccc3C)n(-c3ccccc3)c2c1`, on Renin [1], half-maximal inhibition (IC50) was put at 80 nM.

Regarding `Cc1ccc(F)cc1Oc1c(C(=O)N2CCNCC2)c2ncccc2n1-c1ccccc1`, on Renin [1], 24 nM corresponded to half-maximal inhibition (IC50).

Turning to `Cc1cnc2c(C(=O)N3CCNCC3)c(Oc3cc(F)ccc3C)n(-c3ccccc3)c2c1`, it took 14 nM to reach half-maximal inhibition against Renin [1] (IC50).

As to `O=C(c1c(Cc2ccccc2)n(-c2ccccc2)c2cnccc12)N1CCNCC1`, on Renin [1], the IC50 was 761 nM.

At Renin [1], `CCC[C@H]1CN(C(=O)c2c(Oc3c(C)cccc3C)n(-c3ccccc3)c3cccnc23)CCN1` came in with an IC50 of 1180 nM.

`COc1ccc2c(n1)c(C(=O)N1CCNCC1)c(Oc1cc(F)ccc1C)n2-c1ccccc1`: the IC50 against Renin [1] is 6630 nM.

Turning to `O=C(c1c(Cc2ccccc2)n(-c2ccccc2)c2cccnc12)N1CCNCC1`, the IC50 on Renin [1] amounted to 939 nM.

With `Cc1c(F)cccc1Cc1c(C(=O)N2CCNCC2)c2ccncc2n1-c1ccccc1`, the IC50 against Renin [1] amounted to 14 nM; at Renin [2] it was 25 nM; on Renin [3] it was 26 nM. Besides, the Papp A→B at 2 h, 20 µM in data set [4] was found to be 1.27 ×10⁻⁶ cm/s.

`O=C(c1c(Oc2cccc(F)c2F)n(-c2ccccc2)c2cccnc12)N1CCNCC1`: 310 nM corresponded to half-maximal inhibition against Renin [1] (IC50).

The compound `Cc1cccc(C)c1Oc1c(C(=O)N2CCNC[C@@H]2Cc2ccccc2)c2ncccc2n1-c1ccccc1` displayed an IC50 on Renin [1] of 152 nM.

At Renin [1], `CCc1nccc2c(C(=O)N3CCNCC3)c(Oc3cc(F)ccc3C)n(-c3ccccc3)c12` registered an IC50 of 423 nM.

For `Cc1ccc(C)c(Oc2c(C(=O)N3CCNCC3)c3ncccc3n2-c2ccccc2)c1`, 692 nM corresponded to half-maximal inhibition against Renin [1] (IC50).

Turning to `Cc1cccc(C)c1Oc1c(C(=O)N2CCN[C@@H](C(C)C)C2)c2ncccc2n1-c1ccccc1`, at Renin [1], the IC50 amounted to 2710 nM.

In the case of `Cc1cccc(C)c1Oc1c(C(=O)N2CCNCC2)c2ncccc2n1C1CCCCC1`, the IC50 at Renin [1] was 4 nM.

`CCCCC1CN(C(=O)c2c(Oc3c(C)cccc3C)n(-c3ccccc3)c3cccnc23)CCN1` (racemic) had an IC50 on Renin [1] of 285 nM.

In the case of `O=C(c1c(Cc2cccc(F)c2F)n(-c2ccccc2)c2cccnc12)N1CCNCC1`, at Renin [1], the IC50 was determined as 1460 nM.
